Laboratory results as given in article PMC9263442, “Discovery of Small Molecule KCC2 Potentiators Which Attenuate In Vitro Seizure-Like Activity in Cultured Neurons” (Frontiers in Cell and Developmental Biology, 2022).
Values belong to the molecule of their own block, whether it stands above or below them.

Key:
Type in all cases: cell-based
[1] = target: T1, KCC2 (Rattus norvegicus, UniProt Q63633); experiment: SuperClomeleon Cl- flux assay in HEK-293 with and without KCC2
T1 construct: gene Slc12a5; KCC2b isoform expressed in T-REx-293 cells
T1 sequence (Q63633 43-1139 limits assumed): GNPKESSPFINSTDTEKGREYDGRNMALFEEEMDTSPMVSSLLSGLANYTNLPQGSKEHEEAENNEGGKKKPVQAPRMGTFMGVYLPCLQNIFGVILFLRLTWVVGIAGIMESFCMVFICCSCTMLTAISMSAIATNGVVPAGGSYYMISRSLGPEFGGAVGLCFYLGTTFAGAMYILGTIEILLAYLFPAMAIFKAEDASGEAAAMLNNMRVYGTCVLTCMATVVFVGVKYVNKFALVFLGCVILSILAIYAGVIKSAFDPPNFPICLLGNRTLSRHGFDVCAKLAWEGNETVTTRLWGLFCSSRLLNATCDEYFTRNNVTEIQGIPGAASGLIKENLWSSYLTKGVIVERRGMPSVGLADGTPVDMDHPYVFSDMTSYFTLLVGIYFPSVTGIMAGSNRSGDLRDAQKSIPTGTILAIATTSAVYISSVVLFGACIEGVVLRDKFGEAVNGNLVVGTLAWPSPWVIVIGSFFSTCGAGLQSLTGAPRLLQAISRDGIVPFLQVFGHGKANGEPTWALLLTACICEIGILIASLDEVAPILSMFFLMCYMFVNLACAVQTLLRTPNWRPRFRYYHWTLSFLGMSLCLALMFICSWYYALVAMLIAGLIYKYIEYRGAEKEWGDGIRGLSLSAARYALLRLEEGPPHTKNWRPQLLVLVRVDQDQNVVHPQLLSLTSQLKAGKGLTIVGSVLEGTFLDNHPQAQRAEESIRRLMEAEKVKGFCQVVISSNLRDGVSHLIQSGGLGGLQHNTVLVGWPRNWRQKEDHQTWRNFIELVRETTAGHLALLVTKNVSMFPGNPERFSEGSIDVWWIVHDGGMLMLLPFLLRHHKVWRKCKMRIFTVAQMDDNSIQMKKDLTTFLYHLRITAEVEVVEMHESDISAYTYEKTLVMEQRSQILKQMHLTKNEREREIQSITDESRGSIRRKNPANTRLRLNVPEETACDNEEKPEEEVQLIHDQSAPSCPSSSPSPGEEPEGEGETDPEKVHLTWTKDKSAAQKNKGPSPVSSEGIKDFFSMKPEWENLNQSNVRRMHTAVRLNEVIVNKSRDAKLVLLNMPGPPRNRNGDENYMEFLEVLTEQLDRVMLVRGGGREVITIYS

[2] = target: T1, KCC2; experiment: SuperClomeleon Cl- flux assay in HEK-293 with and without KCC2; Tl+ and […]+ influx
[3] = target: T1, KCC2; experiment: SuperClomeleon Cl- flux assay in HEK-293 overexpressing KCC2

- EC50 [1]: 28.8 ± 4.2 µM
SMILES: Cc1cccc2sc(N(CCN(C)C)C(=O)CCCS(=O)(=O)c3ccccc3)nc12 [VU0500458, N-(2-(Dimethylamino)Ethyl)-N-(4-Methylbenzo[d]Thiazol-2-yl)-4-(Phenylsulfonyl)Butanamide]

- EC50 [2]: 14.2 ± 0.7 µM
SMILES: Cc1ccc(S(=O)(=O)CCCC(=O)N(CCN(C)C)c2nc3c(C)cccc3s2)cc1 [VU0500469, N-(2-(Dimethylamino)Ethyl)-N-(4-Methylbenzo[d]Thiazol-2-yl)-4-Tosylbutanamide]

- EC50 [3]: 17.1 ± 1.2 µM
SMILES: Cc1cccc2sc(N(CCN(C)C)C(=O)CCCS(=O)(=O)c3ccc(F)cc3)nc12 [VU0916219, N-(2-(Dimethylamino)Ethyl)-4-((4-Fluorophenyl)Sulfonyl)-N-(4-Methylbenzo[d]Thiazol-2-yl)Butanamide]
